# PubChem BioAssay (NCI)
# “And” between values parts separate entries of the source, which are not always exact repeats. Equal entries are not always repeated.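 A five-concentration, 48-hour dose response in 96-well plates underlies each endpoint, interpolated linearly between surrounding concentrations. The concentration for 50% growth inhibition is given as GI50. Definition used: TGI = concentration required for complete inhibition of growth.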
# Columns and labels:
# Assay in all cases: NCI-60 cell line screen, 48 h
# [1] = tested on: CCRF-CEM leukemia
# [2] = tested on: HL-60(TB) leukemia
# [3] = tested on: KM12 colon
# [4] = tested on: MDA-MB-231 breast
# [5] = tested on: RPMI-8226 leukemia
# [6] = tested on: SK-MEL-5 melanoma
# [7] = tested on: SR leukemia
# [8] = tested on: SW-620 colon
# [9] = tested on: DMS 273 small cell lung
# [10] = tested on: DMS 114 small cell lung
SMILES,GI50 [1] [µM],TGI [1],GI50 [2] [µM],TGI [2],GI50 [3] [µM],TGI [3],GI50 [4] [µM],TGI [4],GI50 [5] [µM],TGI [5],GI50 [6] [µM],TGI [6],GI50 [7] [µM],TGI [7] [µM],GI50 [8] [µM],TGI [8],TGI [9] [µM],TGI [10] [µM]
Cc1c(N(C(=O)c2cc(-c3cc(Cl)ccc3C(=O)N3Cc4ccccc4C[C@H]3CN3CCOCC3)n(C)c2C)c2ccc(O)cc2)cc(C#N)n1C,8.02,> 100 µM,2.38,29.1 µM,51,> 100 µM,20.2,> 100 µM,7.32,> 100 µM,14.6,36.9 µM,6.25,> 100,34.4,> 100 µM,–,–
CNC(=O)c1ccc(Nc2nc(OC3CCCC3)c3c(-c4ccc5nc(C)oc5c4)c[nH]c3n2)c(OC)c1,0.124,> 44.4 µM,29.2,> 100 µM,9.47,> 100 µM,14,> 100 µM,0.481,> 20.4 µM,2.12,> 100 µM,0.0861,> 100,0.121,> 100 µM,–,–
O=C1C=CC(=O)N1c1ccc2c(c1)Cc1cc(NC(=O)C(F)(F)F)ccc1-2,–,16.9 µM,–,38.1 µM,–,40.6 µM,–,32.3 µM,–,14.3 µM,–,> 100 µM,–,6.44,–,25.8 µM,–,–
COc1cc(/C=C2\C[C@H]3[C@@H]4CC=C5C[C@@H](OC(C)=O)CC[C@]5(C)[C@H]4CC[C@]3(C)[C@H]2OC(C)=O)ccc1OCCCn1ccnc1,11.3,40.9 µM,12.7,34.1 µM,8.31,18.1 µM,8.2,16.6 µM,0.515,1.77 µM,7.25,15.4 µM,8.2,36.3,10.3,> 30.1 µM,–,–
C=C1C(=O)O[C@H]2[C@H]1CC/C(COC(=O)NCCc1c[nH]c3ccccc13)=C\CC[C@@]1(C)O[C@@H]21,0.362,3.57 µM,0.583,2.86 µM,5.41,21.4 µM,1.48,3.3 µM,0.826,4.26 µM,2.44,5.95 µM,1.07,7.05,1.2,2.81 µM,–,–
O=C(Nc1ccc(N=Nc2ccccc2)cc1)Sc1ccccc1C(=O)O,–,–,–,> 100 µM,–,> 100 µM,–,–,–,> 100 µM,–,–,–,> 100,–,> 100 µM,> 100,–
Cc1cc(-c2cc(C)c(O)c(C(C)(C)C)c2)cc(C(C)(C)C)c1O,–,22.4 µM and 39.1 µM,–,26.7 µM and 32.7 µM,–,20.8 µM and 21.3 µM,–,21.4 µM and 26.2 µM,–,45.9 µM and 50.4 µM,–,22.3 µM and 28.2 µM,–,18.1,–,25.1 µM and 70 µM,–,–
COc1cc(-c2ccc(-[n+]3nc(-c4ccc([N+](=O)[O-])cc4)nn3-c3ccc([N+](=O)[O-])cc3)c(OC)c2)ccc1-[n+]1nc(-c2ccc([N+](=O)[O-])cc2)nn1-c1ccc([N+](=O)[O-])cc1,1.08,> 100 µM,1.91,> 46.2 µM,4.04,21.4 µM,8.6,34.7 µM,10.1,67.8 µM,4.28,23.6 µM,30.4,> 100,2.99,25.1 µM,–,–
O=C(CSc1nc2sc3c(c2c(=O)n1-c1ccccc1)CCCCC3)N/N=C/c1ccc(F)cc1,3.16,> 100 µM,> 100,> 100 µM,6,> 100 µM,1.04,3.27 µM,29.5,> 100 µM,2.93,9.56 µM,0.357,6.17,3.14,33.6 µM,–,–
C=C1C(=O)O[C@H]2[C@H]1CC/C(COC(=O)N[C@@H](Cc1c[nH]c3ccccc13)C(=O)OC)=C\CC[C@@]1(C)O[C@@H]21,0.621,3.18 µM,0.363,1.89 µM,4.11,15.6 µM,1.41,3.16 µM,0.527,2.71 µM,1.68,3.26 µM,0.262,1.51,1.47,3.67 µM,–,–
O=C(CC1(O)C(=O)Nc2ccccc21)c1ccc(O)cc1O (centres undefined),–,–,–,> 100 µM,–,–,–,–,–,> 100 µM,–,> 100 µM,–,–,–,> 100 µM,> 100,> 100
C[C@]12CC[C@@H]3c4ccc(OCC(=O)O)cc4CC[C@H]3[C@@H]1CCC2=O,–,4.48 µM,–,0.317 µM,–,> 100 µM,–,> 100 µM,–,> 100 µM,–,> 100 µM,–,> 100,–,> 100 µM,–,–
COc1ccc(C2c3cc4c(cc3OC(O)(CO)C2C(=O)O)OCO4)c(OC)c1OC (centres undefined) (tested in a mixture with another compound),–,> 100 µM,–,> 100 µM,–,–,–,–,–,> 100 µM,–,> 100 µM,–,–,–,> 100 µM,> 100,> 100
CN(C)c1ccc2[nH]c(O)c(C=Nc3ccc(S(N)(=O)=O)cc3)c2c1,17.9,> 25 µM,> 25,> 25 µM,1.15,> 25 µM,> 25,> 25 µM,> 25,> 25 µM,> 25,> 25 µM,13.5,> 25,> 21.9,> 25 µM,–,–
CN1CCN(Cc2ccc(NC(=O)c3[nH]ncc3Nc3ccnc4ccsc34)cc2)CC1,2.45,9.26 µM,2.49,5.85 µM,2.35,11.2 µM,3.56,9.71 µM,2.95,7.18 µM,2.48,11.5 µM,1.92,7,2.6,12 µM,–,–
C[C@]12CC[C@H]3[C@@H](CC=C4C[C@@H](O)CC[C@@]43C)[C@@H]1C/C(=C\c1cccc(OCCCn3ccnc3)c1)[C@@H]2O,13,68.7 µM,8.1,34.3 µM,11.9,28.7 µM,13.2,32 µM,5.32,25 µM,6.26,20.4 µM,6.67,47.7,10.6,26.8 µM,–,–
CCC12CC[C@H](C#N)N3CCc4c(n(c5ccccc45)C(=O)C1)C32 (some centres undefined),–,44.3 µM,–,–,–,22.5 µM,–,–,–,48.9 µM,–,27.2 µM,–,–,–,51.7 µM,19,–
